Source: PubChem BioAssay (NCI)
Values joined by “and” are separate entries in the source; they are usually repeats but may differ in a detail not shown here. Equal entries are not always repeated.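 Briefly, cells in 96-well plates were exposed to five compound concentrations for 48 h, and endpoints were estimated by linear interpolation. Abbreviation: GI50, concentration required for 50% inhibition of growth. TGI: total growth inhibition.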

Legend:
Assay in all cases: DTP human tumour cell line panel, 48 h
SNB-19 CNS = system: SNB-19 CNS
HCT-15 colon = system: HCT-15 colon
OVCAR-5 ovarian = system: OVCAR-5 ovarian
A498 renal = system: A498 renal
SN12C renal = system: SN12C renal
BT-549 breast = system: BT-549 breast
HL-60(TB) leukemia = system: HL-60(TB) leukemia
TK-10 renal = system: TK-10 renal
HOP-62 NSCLC = system: HOP-62 NSCLC
UO-31 renal = system: UO-31 renal

SMILES | GI50 (SNB-19 CNS) | TGI (SNB-19 CNS) [µM] | GI50 (HCT-15 colon) | TGI (HCT-15 colon) | GI50 (OVCAR-5 ovarian) | TGI (OVCAR-5 ovarian) | GI50 (A498 renal) | TGI (A498 renal) | GI50 (SN12C renal) | TGI (SN12C renal) | GI50 (BT-549 breast) | TGI (BT-549 breast) | GI50 (HL-60(TB) leukemia) | TGI (HL-60(TB) leukemia) [µM] | GI50 (TK-10 renal) | TGI (TK-10 renal) | GI50 (HOP-62 NSCLC) | TGI (HOP-62 NSCLC) | GI50 (UO-31 renal) | TGI (UO-31 renal)
CC(=O)Oc1cc2cnc3c4cc(OC(C)=O)c(OC(C)=O)cc4ccc3c2cc1OC(C)=O | 0.594 µM | 65.9 | 1.06 µM | > 100 µM | 3.93 µM | > 100 µM | 0.443 µM | 1.84 µM | 2.18 µM | > 100 µM | 1.35 µM | 8.4 µM | 3.26 µM | 19.8 | 2.78 µM | > 100 µM | 1.86 µM | 59.4 µM | 0.472 µM | > 100 µM
Cc1cc(S(N)(=O)=O)c(S/C(=N\NS(=O)(=O)c2ccccc2)c2ccc(Cl)cc2)cc1Cl | > 100 µM | > 100 | > 100 µM | > 100 µM | > 100 µM | > 100 µM | 43 µM | > 100 µM | 46.5 µM | > 100 µM | > 100 µM | > 100 µM | 50.6 µM | > 100 | > 100 µM | > 100 µM | > 100 µM | > 100 µM | > 100 µM | > 100 µM
CCn1c(-c2nonc2N)nc2cnc(Oc3cccc(NC(=O)c4ccc(N(C)C)cc4)c3)cc21 | > 25 µM | > 25 | 8.55 µM | > 25 µM | > 25 µM | > 25 µM | 4.48 µM | > 25 µM | > 25 µM | > 25 µM | 0.859 µM | > 25 µM | > 25 µM | > 25 | 0.549 µM | > 21 µM | > 25 µM | > 25 µM | 0.0235 µM | > 18.8 µM
COc1ccc(-c2csc(Nc3cccc(-c4csc(C)n4)c3)n2)cc1 | 1.04 µM | > 50 | 0.226 µM | > 47.7 µM | 3.45 µM | 48.6 µM | 12.6 µM | 49.2 µM | 0.97 µM | 7.96 µM | 8.2 µM | 40.3 µM | 0.138 µM | 3.88 | 5.04 µM | > 50 µM | 2.81 µM | > 33.8 µM | 2.54 µM | > 50 µM
CC1(C)N=C(N)N=C(N)N1c1cccc(CCc2ccccc2)c1 | 0.696 µM | > 100 | 45.6 µM | > 100 µM |  | > 100 µM | 3.57 µM | 96.9 µM | 0.456 µM | > 100 µM | 0.577 µM | > 46.7 µM | 1.89 µM | 28.7 | 1.9 µM | > 100 µM | 1.29 µM | > 100 µM | > 100 µM | > 100 µM
COc1cc2ncnc(Oc3cccc(NC(=O)Nc4cc(C(C)(C)C(F)(F)F)on4)c3)c2cc1OC | 4.5 µM and 4.99 µM | > 100 | 2.16 µM and 2.67 µM | 12.5 µM and > 10 µM | 1.1 µM and 1.01 µM | 10.5 µM and > 10 µM | 0.322 µM and 1.05 µM | 1.36 µM and 3.62 µM | 1.61 µM and 1.69 µM | 11.9 µM and > 10 µM | 2.4 µM and 3.89 µM | 8.78 µM and > 10 µM | 2.7 µM and 0.816 µM | > 28.5 | 0.948 µM and 0.82 µM | 4.67 µM and 4.32 µM | 2.45 µM and 2.53 µM | 16.8 µM and > 10 µM | 0.552 µM and 0.788 µM | 10.1 µM and > 7.68 µM
C[C@@H]1CCc2ncc(F)cc2[C@H]2CCCN2c2ccn3ncc(c3n2)C(=O)N1 | > 100 µM | > 100 | 77.1 µM | > 100 µM | > 100 µM | > 100 µM | 12.9 µM | 42.2 µM | 44.1 µM | > 100 µM | 69.8 µM | > 100 µM | > 100 µM | > 100 | 81.7 µM | > 100 µM | 60 µM | > 100 µM | 29.8 µM | > 100 µM
Cc1ccc(OC(=O)N2C/C(=C\c3ccccc3)C(=O)/C(=C/c3ccccc3)C2)cc1 |  | > 100 |  | > 100 µM |  | > 100 µM |  | > 100 µM |  | 58.3 µM |  | 88 µM |  | 15.6 |  | > 87.9 µM |  | 38.7 µM |  | 85 µM
O=[N+]([O-])/C=C/c1ccc(Cl)cc1[N+](=O)[O-] | 3.32 µM | 14 | 2.2 µM | 5.72 µM | 4.49 µM | 14.9 µM | 14.5 µM | 27.8 µM | 3.08 µM | 20.9 µM | 3.47 µM | 10.2 µM | 3.23 µM | 14.1 | 1.78 µM | 3.48 µM | 3.04 µM | 13.4 µM | 1.55 µM | 3.82 µM
O=C(O)c1ccccc1NCn1c(=S)sc2ccccc21 |  | > 100 |  | > 100 µM |  | > 100 µM |  | > 100 µM |  | > 100 µM |  | > 100 µM |  | 38 |  | > 100 µM |  | > 100 µM |  | > 100 µM
COc1cc(-c2nn(-c3cccc(NC(=O)CCN4CCN(c5ccccc5)CC4)c3)cc2-c2ccncc2)ccc1Cl | 4.38 µM | > 100 | 2.62 µM | > 100 µM | 3.15 µM | > 100 µM | 3.29 µM | 17.9 µM | 3.72 µM | > 100 µM | 3.17 µM | > 100 µM | 3.63 µM | > 100 | 3.69 µM | > 100 µM | 4.32 µM | > 100 µM | 2.9 µM | 48 µM
COc1cc(-c2nn(-c3cccc(NC(=O)CCNc4ccc(N5CCOCC5)cc4)c3)cc2-c2ccncc2)ccc1Cl | 3.34 µM | > 100 | 2.35 µM | > 100 µM | 3.43 µM | > 100 µM | 2.52 µM | 17.4 µM | 3.19 µM | > 100 µM | 3.41 µM | 31 µM | 3.71 µM | > 100 | 3.13 µM | 47.9 µM | 3.48 µM | 22.3 µM | 2.7 µM | > 100 µM
Cc1nc2ccccc2c(=O)n1/N=C(\N=Nc1cc(Cl)ccc1Cl)c1ccccc1 |  | > 31.6 |  | > 100 µM |  | > 100 µM |  | > 100 µM |  | > 83.3 µM |  | > 100 µM |  | > 100 |  | > 100 µM |  | > 100 µM |  | > 31.6 µM
